Measurements published in the supplement of paper PMC4862054.

System: HCC1599
Assay: drug sensitivity score (DSS), CellTiter-Glo (DSS (AUC-based score)); higher = stronger drug effect (viability inhibition or cytotoxicity); extreme values may be limits of the assay
Conditions: incubation time: 72 h
Procedure, shortened: (§1)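 Using 20 µl of cell suspension per well, breast cancer cell lines were seeded into 384-well plates pre-loaded with compound at 5 concentrations in 10-fold steps across a compound-specific 10,000-fold range. Incubation lasted 72 h, after which CellTox Green fluorescence at 485/520 nm and then CellTiter-Glo luminescence, following 10 min at room temperature, were recorded. Each plate was normalised to 0.1 % DMSO and a positive kill control before the drug sensitivity score was derived from the area under the fitted dose-response curve.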

In order of rising drug sensitivity score:
1. O=C(O)c1ccc(-c2c[nH]c3ncc(-c4ccccc4)cc23)cc1C1CCCC1  0
2. N#CCNC(=O)c1ccc(-c2ccnc(Nc3ccc(N4CCOCC4)cc3)n2)cc1 [Momelotinib]  0
3. COc1cc2ncnc(Nc3ccc(F)c(Cl)c3)c2cc1NC(=O)/C=C/CN1CCCCC1 [Dacomitinib]  0
4. CS(=O)(=O)c1ccc(C2=C(c3ccccc3)C(=O)OC2)cc1 [Rofecoxib]  0
5. O=C(CCCCCCC(=O)Nc1ccc([C@H]2O[C@@H](CSc3nc(-c4ccccc4)c(-c4ccccc4)o3)C[C@@H](c3ccc(CO)cc3)O2)cc1)NO [Tubacin]  4.67

System: HCC1143
Assay: as above
Conditions: incubation time: 72 h
Procedure, shortened: as §1

In order of falling drug sensitivity score:
1. CN[C@@H]1C[C@H]2O[C@@](C)([C@@H]1OC)n1c3ccccc3c3c4c(c5c6ccccc6n2c5c31)C(=O)N[C@H]4O [UCN-01]  19.7
2. NC(=O)Nc1cc(-c2cccc(F)c2)sc1C(=O)N[C@H]1CCCNC1 [AZD7762]  4.03
3. O=C(CCCCCCC(=O)Nc1ccc([C@H]2O[C@@H](CSc3nc(-c4ccccc4)c(-c4ccccc4)o3)C[C@@H](c3ccc(CO)cc3)O2)cc1)NO [Tubacin]  3.15
4. N#CCNC(=O)c1ccc(-c2ccnc(Nc3ccc(N4CCOCC4)cc3)n2)cc1 [Momelotinib]  1.42
5. Oc1nc(-c2ccc(C(F)(F)F)cc2)nc2c1CSCC2 [XAV-939]  0
6. N.N.[Cl][Pt][Cl] [Cisplatin]  0
7. C[C@@H](Oc1cc(-c2cnn(C3CCNCC3)c2)cnc1N)c1c(Cl)ccc(F)c1Cl [Crizotinib]  0
8. CC1(C)NC(=O)N(c2ccc([N+](=O)[O-])c(C(F)(F)F)c2)C1=O [Nilutamide]  0
9. CCCCCCCCCCCCCCCCCCOP(=O)([O-])OC1CC[N+](C)(C)CC1 [Perifosine]  0
10. O=C(O)c1ccc(-c2c[nH]c3ncc(-c4ccccc4)cc23)cc1C1CCCC1  0
11. COc1cc2ncnc(Nc3ccc(F)c(Cl)c3)c2cc1NC(=O)/C=C/CN1CCCCC1 [Dacomitinib]  0
12. CS(=O)(=O)c1ccc(C2=C(c3ccccc3)C(=O)OC2)cc1 [Rofecoxib]  0

System: DU-4475
Assay: as above
Conditions: incubation time: 72 h
Procedure, shortened: as §1

In order of rising drug sensitivity score:
1. Oc1nc(-c2ccc(C(F)(F)F)cc2)nc2c1CSCC2 [XAV-939]  0
2. NC(=O)Nc1cc(-c2cccc(F)c2)sc1C(=O)N[C@H]1CCCNC1 [AZD7762]  0
3. N.N.[Cl][Pt][Cl] [Cisplatin]  0
4. C[C@@H](Oc1cc(-c2cnn(C3CCNCC3)c2)cnc1N)c1c(Cl)ccc(F)c1Cl [Crizotinib]  0
5. CC1(C)NC(=O)N(c2ccc([N+](=O)[O-])c(C(F)(F)F)c2)C1=O [Nilutamide]  0
6. CCCCCCCCCCCCCCCCCCOP(=O)([O-])OC1CC[N+](C)(C)CC1 [Perifosine]  0
7. O=C(O)c1ccc(-c2c[nH]c3ncc(-c4ccccc4)cc23)cc1C1CCCC1  0
8. N#CCNC(=O)c1ccc(-c2ccnc(Nc3ccc(N4CCOCC4)cc3)n2)cc1 [Momelotinib]  0
9. COc1cc2ncnc(Nc3ccc(F)c(Cl)c3)c2cc1NC(=O)/C=C/CN1CCCCC1 [Dacomitinib]  0
10. CS(=O)(=O)c1ccc(C2=C(c3ccccc3)C(=O)OC2)cc1 [Rofecoxib]  0
11. O=C(CCCCCCC(=O)Nc1ccc([C@H]2O[C@@H](CSc3nc(-c4ccccc4)c(-c4ccccc4)o3)C[C@@H](c3ccc(CO)cc3)O2)cc1)NO [Tubacin]  1.66
12. CN[C@@H]1C[C@H]2O[C@@](C)([C@@H]1OC)n1c3ccccc3c3c4c(c5c6ccccc6n2c5c31)C(=O)N[C@H]4O [UCN-01]  19.9

System: BT-474
Assay: as above
Conditions: incubation time: 72 h
Procedure, shortened: as §1

In order of falling drug sensitivity score:
1. CN[C@@H]1C[C@H]2O[C@@](C)([C@@H]1OC)n1c3ccccc3c3c4c(c5c6ccccc6n2c5c31)C(=O)N[C@H]4O [UCN-01]  26
2. O=C(CCCCCCC(=O)Nc1ccc([C@H]2O[C@@H](CSc3nc(-c4ccccc4)c(-c4ccccc4)o3)C[C@@H](c3ccc(CO)cc3)O2)cc1)NO [Tubacin]  4.89
3. N#CCNC(=O)c1ccc(-c2ccnc(Nc3ccc(N4CCOCC4)cc3)n2)cc1 [Momelotinib]  4.25
4. NC(=O)Nc1cc(-c2cccc(F)c2)sc1C(=O)N[C@H]1CCCNC1 [AZD7762]  4.13
5. Oc1nc(-c2ccc(C(F)(F)F)cc2)nc2c1CSCC2 [XAV-939]  3.54
6. O=C(O)c1ccc(-c2c[nH]c3ncc(-c4ccccc4)cc23)cc1C1CCCC1  0.507
7. COc1cc2ncnc(Nc3ccc(F)c(Cl)c3)c2cc1NC(=O)/C=C/CN1CCCCC1 [Dacomitinib]  0.458
8. N.N.[Cl][Pt][Cl] [Cisplatin]  0
9. C[C@@H](Oc1cc(-c2cnn(C3CCNCC3)c2)cnc1N)c1c(Cl)ccc(F)c1Cl [Crizotinib]  0
10. CC1(C)NC(=O)N(c2ccc([N+](=O)[O-])c(C(F)(F)F)c2)C1=O [Nilutamide]  0
11. CCCCCCCCCCCCCCCCCCOP(=O)([O-])OC1CC[N+](C)(C)CC1 [Perifosine]  0
12. CS(=O)(=O)c1ccc(C2=C(c3ccccc3)C(=O)OC2)cc1 [Rofecoxib]  0

System: CAL-51
Assay: as above
Conditions: incubation time: 72 h
Procedure, shortened: as §1

In order of falling drug sensitivity score:
1. CN[C@@H]1C[C@H]2O[C@@](C)([C@@H]1OC)n1c3ccccc3c3c4c(c5c6ccccc6n2c5c31)C(=O)N[C@H]4O [UCN-01]  23.9
2. Oc1nc(-c2ccc(C(F)(F)F)cc2)nc2c1CSCC2 [XAV-939]  8.6
3. O=C(CCCCCCC(=O)Nc1ccc([C@H]2O[C@@H](CSc3nc(-c4ccccc4)c(-c4ccccc4)o3)C[C@@H](c3ccc(CO)cc3)O2)cc1)NO [Tubacin]  5.04
4. CC1(C)NC(=O)N(c2ccc([N+](=O)[O-])c(C(F)(F)F)c2)C1=O [Nilutamide]  2.72
5. NC(=O)Nc1cc(-c2cccc(F)c2)sc1C(=O)N[C@H]1CCCNC1 [AZD7762]  1.07
6. CS(=O)(=O)c1ccc(C2=C(c3ccccc3)C(=O)OC2)cc1 [Rofecoxib]  0.464
7. N.N.[Cl][Pt][Cl] [Cisplatin]  0
8. C[C@@H](Oc1cc(-c2cnn(C3CCNCC3)c2)cnc1N)c1c(Cl)ccc(F)c1Cl [Crizotinib]  0
9. CCCCCCCCCCCCCCCCCCOP(=O)([O-])OC1CC[N+](C)(C)CC1 [Perifosine]  0
10. O=C(O)c1ccc(-c2c[nH]c3ncc(-c4ccccc4)cc23)cc1C1CCCC1  0
11. N#CCNC(=O)c1ccc(-c2ccnc(Nc3ccc(N4CCOCC4)cc3)n2)cc1 [Momelotinib]  0
12. COc1cc2ncnc(Nc3ccc(F)c(Cl)c3)c2cc1NC(=O)/C=C/CN1CCCCC1 [Dacomitinib]  0

System: SK-BR-3
Assay: as above
Conditions: incubation time: 72 h
Procedure, shortened: as §1

In order of falling drug sensitivity score:
1. CN[C@@H]1C[C@H]2O[C@@](C)([C@@H]1OC)n1c3ccccc3c3c4c(c5c6ccccc6n2c5c31)C(=O)N[C@H]4O [UCN-01]  24
2. COc1cc2ncnc(Nc3ccc(F)c(Cl)c3)c2cc1NC(=O)/C=C/CN1CCCCC1 [Dacomitinib]  14.6
3. NC(=O)Nc1cc(-c2cccc(F)c2)sc1C(=O)N[C@H]1CCCNC1 [AZD7762]  3.78
4. N#CCNC(=O)c1ccc(-c2ccnc(Nc3ccc(N4CCOCC4)cc3)n2)cc1 [Momelotinib]  2.75
5. O=C(O)c1ccc(-c2c[nH]c3ncc(-c4ccccc4)cc23)cc1C1CCCC1  2.12
6. O=C(CCCCCCC(=O)Nc1ccc([C@H]2O[C@@H](CSc3nc(-c4ccccc4)c(-c4ccccc4)o3)C[C@@H](c3ccc(CO)cc3)O2)cc1)NO [Tubacin]  1.97
7. Oc1nc(-c2ccc(C(F)(F)F)cc2)nc2c1CSCC2 [XAV-939]  0
8. N.N.[Cl][Pt][Cl] [Cisplatin]  0
9. C[C@@H](Oc1cc(-c2cnn(C3CCNCC3)c2)cnc1N)c1c(Cl)ccc(F)c1Cl [Crizotinib]  0
10. CC1(C)NC(=O)N(c2ccc([N+](=O)[O-])c(C(F)(F)F)c2)C1=O [Nilutamide]  0
11. CCCCCCCCCCCCCCCCCCOP(=O)([O-])OC1CC[N+](C)(C)CC1 [Perifosine]  0
12. CS(=O)(=O)c1ccc(C2=C(c3ccccc3)C(=O)OC2)cc1 [Rofecoxib]  0

System: Hs578T
Assay: as above
Conditions: incubation time: 72 h
Procedure, shortened: as §1

In order of falling drug sensitivity score:
1. CN[C@@H]1C[C@H]2O[C@@](C)([C@@H]1OC)n1c3ccccc3c3c4c(c5c6ccccc6n2c5c31)C(=O)N[C@H]4O [UCN-01]  27.5
2. N#CCNC(=O)c1ccc(-c2ccnc(Nc3ccc(N4CCOCC4)cc3)n2)cc1 [Momelotinib]  4.38
3. NC(=O)Nc1cc(-c2cccc(F)c2)sc1C(=O)N[C@H]1CCCNC1 [AZD7762]  3.86
4. O=C(O)c1ccc(-c2c[nH]c3ncc(-c4ccccc4)cc23)cc1C1CCCC1  0.128
5. Oc1nc(-c2ccc(C(F)(F)F)cc2)nc2c1CSCC2 [XAV-939]  0
6. N.N.[Cl][Pt][Cl] [Cisplatin]  0
7. C[C@@H](Oc1cc(-c2cnn(C3CCNCC3)c2)cnc1N)c1c(Cl)ccc(F)c1Cl [Crizotinib]  0
8. CC1(C)NC(=O)N(c2ccc([N+](=O)[O-])c(C(F)(F)F)c2)C1=O [Nilutamide]  0
9. CCCCCCCCCCCCCCCCCCOP(=O)([O-])OC1CC[N+](C)(C)CC1 [Perifosine]  0
10. O=C(CCCCCCC(=O)Nc1ccc([C@H]2O[C@@H](CSc3nc(-c4ccccc4)c(-c4ccccc4)o3)C[C@@H](c3ccc(CO)cc3)O2)cc1)NO [Tubacin]  0
11. COc1cc2ncnc(Nc3ccc(F)c(Cl)c3)c2cc1NC(=O)/C=C/CN1CCCCC1 [Dacomitinib]  0
12. CS(=O)(=O)c1ccc(C2=C(c3ccccc3)C(=O)OC2)cc1 [Rofecoxib]  0

System: HCC1937
Assay: as above
Conditions: incubation time: 72 h
Procedure, shortened: as §1

In order of rising drug sensitivity score:
1. Oc1nc(-c2ccc(C(F)(F)F)cc2)nc2c1CSCC2 [XAV-939]  0
2. N.N.[Cl][Pt][Cl] [Cisplatin]  0
3. NC(=O)Nc1cc(-c2cccc(F)c2)sc1C(=O)N[C@H]1CCCNC1 [AZD7762]  2.78
